Patent US20260000656A1, “ANTIFUNGAL AGENTS WITH ENHANCED ACTIVITY IN ACIDIC PH” (Scynexis, Inc., priority 2017, published 2026)
In brackets after ≈: the same amount, converted by molar mass. Like-named read-outs stand apart in the source and are kept apart here.

Assays:
[1] = tested on: C. glabrata isolates; assay: Broth microdilution susceptibility (CLSI M27-A3) at different medium pH; format: cell-based, Candida glabrata; conditions: for MIC range: 50% inhibition; for MIC range / MIC50 / MIC90: 10 vaginal isolates; for MIC50 / MIC90 / MIC: Nakaseomyces glabratus, 24 h; for MIC50: read-out: MIC50; for MIC90: read-out: MIC90; for MIC: read-out: MIC (50% inhibition)
Protocol: (§1) Ten strains each of C. glabrata and C. albicans vaginal isolates were tested. The strains were obtained from recent clinical trial patients with vulvovaginal candidiasis (VVC) prior to treatment. Candida strains were obtained from the Mycology Reference Library (MRL) at Case Western Reserve University School of Medicine, Ohio, United States.
(§2) Susceptibility testing was performed using a broth microdilution method, according to CLSI M27-A3 guidelines (CLSI. 2008. Reference Method for Broth Dilution Antifungal Susceptibility Testing of Yeasts; Approved Standard—Third Edition. Clinical and Laboratory Standards Institute, CLSI document M27-A3). Antifungals and concentrations tested were SCY-078 and micafungin (both at concentrations within the range of 0.015 to 8 μg/ml) and fluconazole (at concentrations within the range of 0.125 to 64 μg/ml). A 0.1-ml C. albicans and C. glabrata inoculum of 0.5-2.5×10^3 blastospores/ml in RPMI 1640 medium was added to each microdilution well. ATCC strains of Candida parapsilosis and Candida krusei QC isolates were also included concurrently to ensure quality control. Antifungal susceptibility testing was carried out for each isolate in RPMI 1640 at pH 7 (to mimic RPMI medium used in testing the susceptibility of yeast by the CLSI M-27A3 document), pH 5.7, and pH 4.5 (to mimic the pH of the vaginal cavity) by adjusting the pH of the media using NaOH or HCl. […] Agents Chemother., 43: 1383-1386 (1999).
(§3) […] SCY-078 powder was manufactured by Avista, Laboratories, NC. Micafungin and fluconazole were sourced from LGM Pharma.

[2] = tested on: C. albicans isolates; assay: as above; format: cell-based, Candida albicans; conditions: for MIC range / MIC50 / MIC90: 10 vaginal isolates; for MIC90: read-out: MIC90; for MIC: read-out: MIC (50% inhibition)
Protocol: as §1, §2, §3

[3] = pH 4.5, 50% inhibition, pH 4.5, 24 h
[4] = pH 5.72, 50% inhibition, pH 5.72, 24 h
[5] = pH 7, 50% inhibition, pH 7.0, 24 h

MIC range ([1]; pH 4.5, 24 h): 1 to 16 µg/mL
MIC range ([1]; pH 5.72, 24 h): 2 to 16 µg/mL
MIC range ([1]; pH 7.0, 24 h): 0.5 to 2 µg/mL
increase in MIC50, pH 7 compared to pH 4.5 ([1]; C. glabrata isolates): 8 fold
MIC50 [1, 3]: 8 µg/mL (≈ 26.1 µM)
MIC90 [1, 3]: 16 µg/mL (≈ 52.2 µM)
MIC ([1]; pH 4.5, C. glabrata MRL 32075, pH 4.5, 24 hours): 8 µg/mL (≈ 26.1 µM)
MIC ([1]; pH 4.5, C. glabrata MRL 32232, pH 4.5, 24 hours): 8 µg/mL (≈ 26.1 µM)
MIC ([1]; pH 4.5, C. glabrata MRL 32626, pH 4.5, 24 hours): 8 µg/mL (≈ 26.1 µM)
MIC ([1]; pH 4.5, C. glabrata MRL 32993, pH 4.5, 24 hours): 16 µg/mL (≈ 52.2 µM)
MIC ([1]; pH 4.5, C. glabrata MRL 33204, pH 4.5, 24 hours): 8 µg/mL (≈ 26.1 µM)
MIC ([1]; pH 4.5, C. glabrata MRL 33960, pH 4.5, 24 hours): 16 µg/mL (≈ 52.2 µM)
MIC ([1]; pH 4.5, C. glabrata MRL 33961, pH 4.5, 24 hours): 1 µg/mL (≈ 3.27 µM)
MIC ([1]; pH 4.5, C. glabrata MRL 34339, pH 4.5, 24 hours): 8 µg/mL (≈ 26.1 µM)
MIC ([1]; pH 4.5, C. glabrata MRL 34407, pH 4.5, 24 hours): 8 µg/mL (≈ 26.1 µM)
MIC ([1]; pH 4.5, C. glabrata MRL 34576, pH 4.5, 24 hours): 16 µg/mL (≈ 52.2 µM)
MIC50 [1, 4]: 8 µg/mL (≈ 26.1 µM)
MIC90 [1, 4]: 16 µg/mL (≈ 52.2 µM)
MIC ([1]; pH 5.72, C. glabrata MRL 32075, pH 5.72, 24 hours): 8 µg/mL (≈ 26.1 µM)
MIC ([1]; pH 5.72, C. glabrata MRL 32232, pH 5.72, 24 hours): 8 µg/mL (≈ 26.1 µM)
MIC ([1]; pH 5.72, C. glabrata MRL 32626, pH 5.72, 24 hours): 8 µg/mL (≈ 26.1 µM)
MIC ([1]; pH 5.72, C. glabrata MRL 32993, pH 5.72, 24 hours): 16 µg/mL (≈ 52.2 µM)
MIC ([1]; pH 5.72, C. glabrata MRL 33204, pH 5.72, 24 hours): 8 µg/mL (≈ 26.1 µM)
MIC ([1]; pH 5.72, C. glabrata MRL 33960, pH 5.72, 24 hours): 16 µg/mL (≈ 52.2 µM)
MIC ([1]; pH 5.72, C. glabrata MRL 33961, pH 5.72, 24 hours): 2 µg/mL (≈ 6.53 µM)
MIC ([1]; pH 5.72, C. glabrata MRL 34339, pH 5.72, 24 hours): 2 µg/mL (≈ 6.53 µM)
MIC ([1]; pH 5.72, C. glabrata MRL 34407, pH 5.72, 24 hours): 8 µg/mL (≈ 26.1 µM)
MIC ([1]; pH 5.72, C. glabrata MRL 34576, pH 5.72, 24 hours): 8 µg/mL (≈ 26.1 µM)
MIC50 [1, 5]: 1 µg/mL (≈ 3.27 µM)
MIC90 [1, 5]: 2 µg/mL (≈ 6.53 µM)
MIC ([1]; pH 7, C. glabrata MRL 32075, pH 7.0, 24 hours): 2 µg/mL (≈ 6.53 µM)
MIC ([1]; pH 7, C. glabrata MRL 32232, pH 7.0, 24 hours): 2 µg/mL (≈ 6.53 µM)
MIC ([1]; pH 7, C. glabrata MRL 32626, pH 7.0, 24 hours): 1 µg/mL (≈ 3.27 µM)
MIC ([1]; pH 7, C. glabrata MRL 32993, pH 7.0, 24 hours): 2 µg/mL (≈ 6.53 µM)
MIC ([1]; pH 7, C. glabrata MRL 33204, pH 7.0, 24 hours): 2 µg/mL (≈ 6.53 µM)
MIC ([1]; pH 7, C. glabrata MRL 33960, pH 7.0, 24 hours): 1 µg/mL (≈ 3.27 µM)
MIC ([1]; pH 7, C. glabrata MRL 33961, pH 7.0, 24 hours): 1 µg/mL (≈ 3.27 µM)
MIC ([1]; pH 7, C. glabrata MRL 34339, pH 7.0, 24 hours): 0.5 µg/mL (≈ 1.63 µM)
MIC ([1]; pH 7, C. glabrata MRL 34407, pH 7.0, 24 hours): 1 µg/mL (≈ 3.27 µM)
MIC ([1]; pH 7, C. glabrata MRL 34576, pH 7.0, 24 hours): 1 µg/mL (≈ 3.27 µM)
MIC range ([2]; 50% inhibition, pH 4.5, 24 h): 0.25 to 8 µg/mL
MIC50 ([2]; 50% inhibition, pH 5.72, 24 h): < 0.125 µg/mL
MIC range ([2]; 50% inhibition, pH 5.72, 24 h): <0.125 to 1 µg/mL
MIC range ([2]; 50% inhibition, pH 7.0, 24 h): <0.125 to 1 µg/mL
MIC50 ([2]; Candida albicans, 24 h, pH 4.5, 50% inhibition, pH 4.5, 24 h, read-out: MIC50): 0.25 µg/mL (≈ 0.816 µM)
MIC90 ([2]; Candida albicans, 24 h, pH 4.5, 50% inhibition, pH 4.5, 24 h): 1 µg/mL (≈ 3.27 µM)
MIC ([2]; Candida albicans, 24 h, pH 4.5, C. albicans MRL 34366, pH 4.5, 24 hours): 0.25 µg/mL (≈ 0.816 µM)
MIC ([2]; Candida albicans, 24 h, pH 4.5, C. albicans MRL 34367, pH 4.5, 24 hours): 1 µg/mL (≈ 3.27 µM)
MIC ([2]; Candida albicans, 24 h, pH 4.5, C. albicans MRL 34372, pH 4.5, 24 hours): 0.25 µg/mL (≈ 0.816 µM)
MIC ([2]; Candida albicans, 24 h, pH 4.5, C. albicans MRL 34373, pH 4.5, 24 hours): 0.5 µg/mL (≈ 1.63 µM)
MIC ([2]; Candida albicans, 24 h, pH 4.5, C. albicans MRL 34374, pH 4.5, 24 hours): 0.25 µg/mL (≈ 0.816 µM)
MIC ([2]; Candida albicans, 24 h, pH 4.5, C. albicans MRL 34385, pH 4.5, 24 hours): 0.25 µg/mL (≈ 0.816 µM)
MIC ([2]; Candida albicans, 24 h, pH 4.5, C. albicans MRL 34389, pH 4.5, 24 hours): 0.5 µg/mL (≈ 1.63 µM)
MIC ([2]; Candida albicans, 24 h, pH 4.5, C. albicans MRL 34399, pH 4.5, 24 hours): 8 µg/mL (≈ 26.1 µM)
MIC ([2]; Candida albicans, 24 h, pH 4.5, C. albicans MRL 34408, pH 4.5, 24 hours): 0.25 µg/mL (≈ 0.816 µM)
MIC ([2]; Candida albicans, 24 h, pH 4.5, C. albicans MRL 34449, pH 4.5, 24 hours): 0.5 µg/mL (≈ 1.63 µM)
MIC50 ([2]; Candida albicans, 24 h, pH 5.72, 50% inhibition, pH 5.72, 24 h, read-out: MIC50): < 0.125 µg/mL
MIC90 ([2]; Candida albicans, 24 h, pH 5.72, 50% inhibition, pH 5.72, 24 h): 0.25 µg/mL (≈ 0.816 µM)
MIC ([2]; Candida albicans, 24 h, pH 5.72, C. albicans MRL 34366, pH 5.72, 24 hours): < 0.125 µg/mL
MIC ([2]; Candida albicans, 24 h, pH 5.72, C. albicans MRL 34367, pH 5.72, 24 hours): 0.25 µg/mL (≈ 0.816 µM)
MIC ([2]; Candida albicans, 24 h, pH 5.72, C. albicans MRL 34372, pH 5.72, 24 hours): < 0.125 µg/mL
MIC ([2]; Candida albicans, 24 h, pH 5.72, C. albicans MRL 34373, pH 5.72, 24 hours): < 0.125 µg/mL
MIC ([2]; Candida albicans, 24 h, pH 5.72, C. albicans MRL 34374, pH 5.72, 24 hours): < 0.125 µg/mL
MIC ([2]; Candida albicans, 24 h, pH 5.72, C. albicans MRL 34385, pH 5.72, 24 hours): < 0.125 µg/mL
MIC ([2]; Candida albicans, 24 h, pH 5.72, C. albicans MRL 34389, pH 5.72, 24 hours): < 0.125 µg/mL
MIC ([2]; Candida albicans, 24 h, pH 5.72, C. albicans MRL 34399, pH 5.72, 24 hours): 1 µg/mL (≈ 3.27 µM)
MIC ([2]; Candida albicans, 24 h, pH 5.72, C. albicans MRL 34408, pH 5.72, 24 hours): 0.25 µg/mL (≈ 0.816 µM)
MIC ([2]; Candida albicans, 24 h, pH 5.72, C. albicans MRL 34449, pH 5.72, 24 hours): < 0.125 µg/mL
MIC50 ([2]; Candida albicans, 24 h, pH 7, 50% inhibition, pH 7.0, 24 h, read-out: MIC50): 0.25 µg/mL (≈ 0.816 µM)
MIC90 ([2]; Candida albicans, 24 h, pH 7, 50% inhibition, pH 7.0, 24 h): 0.25 µg/mL (≈ 0.816 µM)
MIC ([2]; Candida albicans, 24 h, pH 7, C. albicans MRL 34366, pH 7.0, 24 hours): < 0.125 µg/mL
MIC ([2]; Candida albicans, 24 h, pH 7, C. albicans MRL 34367, pH 7.0, 24 hours): 0.25 µg/mL (≈ 0.816 µM)
MIC ([2]; Candida albicans, 24 h, pH 7, C. albicans MRL 34372, pH 7.0, 24 hours): < 0.125 µg/mL
MIC ([2]; Candida albicans, 24 h, pH 7, C. albicans MRL 34373, pH 7.0, 24 hours): 0.25 µg/mL (≈ 0.816 µM)
MIC ([2]; Candida albicans, 24 h, pH 7, C. albicans MRL 34374, pH 7.0, 24 hours): 0.25 µg/mL (≈ 0.816 µM)
MIC ([2]; Candida albicans, 24 h, pH 7, C. albicans MRL 34385, pH 7.0, 24 hours): < 0.125 µg/mL
MIC ([2]; Candida albicans, 24 h, pH 7, C. albicans MRL 34389, pH 7.0, 24 hours): < 0.125 µg/mL
MIC ([2]; Candida albicans, 24 h, pH 7, C. albicans MRL 34399, pH 7.0, 24 hours): 1 µg/mL (≈ 3.27 µM)
MIC ([2]; Candida albicans, 24 h, pH 7, C. albicans MRL 34408, pH 7.0, 24 hours): 0.25 µg/mL (≈ 0.816 µM)
MIC ([2]; Candida albicans, 24 h, pH 7, C. albicans MRL 34449, pH 7.0, 24 hours): 0.25 µg/mL (≈ 0.816 µM)
SMILES: OC(Cn1cncn1)(Cn1cncn1)c1ccc(F)cc1F [Fluconazole, reference compound]
